Results taken from BindingDB's records for doi:10.1016/j.bmcl.2004.01.013 (University of Arizona, 2004).

Molecular target: Ceramide glucosyltransferase (Canis familiaris)
Test: Inhibitory concentration against glucosylceramide synthase in MDCK cell line

IC50 | Compound
90 nM | CCCCCCCCCCCCCCCC(=O)NC(CN1CCCC1)C(O)c1ccc2c(c1)OCCO2 (configuration not stated) [Hexadecanoic acid [2-(2,3-dihydro-benzo[1,4]dioxin-6-yl)-2-hydroxy-1-pyrrolidin-1-ylmethyl-ethyl]-amide]
90 nM | CCCCCCCCCCCCCCCC(=O)NC(CN1CCCC1)C(O)c1ccc(O)cc1 (configuration not stated) [Hexadecanoic acid [2-hydroxy-2-(4-hydroxy-phenyl)-1-pyrrolidin-1-ylmethyl-ethyl]-amide]
